Data on six molecules can be found in US4456618A, “Naphthenic and heterocyclic retinoic acid analogues” (SRI International, priority 1982, dated 1984).

Assay [1] has as its system Hamster Tracheal Organ Culture. Briefly: Reversal of keratinization in hamster tracheal organ culture. Type of assay: cell-based. Here is the method: (§1) The ODC assay measures a compound's ability to prevent the induction of ODC. The tracheal organ culture assay measures a compound's ability to reverse keratinization.
The tracheal organ culture assay is carried out as follows. Tracheas are taken from hamsters that are in very early stages of vitamin A deficiency and placed in organ culture. At the time of culture, the animals are still gaining weight; the tracheal epithelium is generally low columnar or cuboidal, with only occasional patches of squamous metaplasia. Each trachea is opened from the larynx to the carina along the membranous dorsal wall and cultured in a serum-free medium (CMRL-1066; with crystalline bovine insulin, 0.1 μg/ml; hydrocortisone hemisuccinate, 0.1 μg/ml; glutamine, 2 mM; penicillin, 100 units/ml; and streptomycin,100 μg/ml, added). Cultures are gassed with 50% oxygen, 45% nitrogen, and 5% CO2. The culture dishes are rocked at 35.5-36.0 degrees to allow the tracheas contact with both gas and medium. All tracheas are grown in medium containing no retinoid for the first 3 days. At the end of 3 days, some tracheas are harvested; almost all of these tracheas have significant squamous metaplasia, and approximately 60% have keratinized lesions. The remaining tracheas are then divided into different groups which are treated with either: (1) retinoid dissolved in dimethylsulfoxide (final concentration of DMSO in culture medium is never greater than 0.1%) or (2) an equivalent amount of DMSO alone. Culture medium is changed three times a week, and all of the remaining tracheas are harvested at the end of 10 days in culture. Tracheas are fixed in 10% buffered formalin and embedded in paraffin. Cross sections of five micrometers are made through the mid-portion, stained with hematoxylin and eosin, and then scored with a microscope for the presence of keratin and keratohyaline granules, both of which are found in approximately 90% of control cultures that received no retinoid for the entire 10 day culture period.

Assay [2] deals with Ornithine Decarboxylase. Kind of assay: Ornithine decarboxylase (ODC) assay: inhibition of TPA-induced ODC induction in mouse skin. Type of assay: in vivo, mouse (female Charles River CD-1). Particulars: topical, 1 hour before TPA (17 nmol). Here is the method:
as §1
The ODC assay is carried out as follows. Female Charles River CD-1 mice from Charles River Breeding Laboratories, Wilmington, Mass., are used (age 7 to 9 weeks). The dorsal hair of the mice is shaved 1 to 2 days before testing, and only mice showing no hair regrowth are used. A single dose of 12-O-tetradecanoylphorbol-13-acetate (TPA) (10.5 μg, 17 nmol) in 0.2 mL of acetone is applied topically to the back of each mouse. The test compound, at one of three dose levels (1.7, 17 and 170 nmol), dissolved in 0.2 mL of acetone is applied 1 hour before the TPA treatment to the test groups; the control group is treated with acetone alone. The mice are killed by cervical dislocation five hours after TPA treatment. Determinations are done in triplicate.
The epidermis is obtained from the sacrificed animals. To obtain sufficient material, the dorsal skins from 2 to 3 mice in each treatment group are pooled. The depilatory agent Nudit® (Helena Rubinstein, New York) is applied to the shaved area of the skin; after 5 minutes, it is washed off thoroughly with cold tap water. Then the skin is excised and plunged immediately into ice-cold water; it is then placed in a 55° C. water bath for 30 seconds and reimmersed in ice-cold water for at lease another 30 seconds. The skin is placed epidermis side up on a cold plate, and the epidermis is scraped off with a razor blade. The pooled epidermal sheets are homogenized (Polytron PT-10 homogenizer) at 0° to 4° C. for 15-20 seconds in 50 mM sodium phosphate and 0.1 mM ethylenediaminetetraacetic acid (EDTA), at a volume of 1 mL/skin.
The supernatant fraction remaining after centrifugation of the homogenate at 10,000×g for 30 seconds at 0° C. is used for the enzyme assay. Enzyme activity is determined using the microassay for ODC as described by Verma and Boutwell to measure the release of ^14 CO2 from DL-[1-^14 C]-ornithine (58 mCi/mmol) after incubation with the 10,000×g supernatant. The incubations are carried out by decanting, with a Pasteur pipette, 100 μL of the supernatant containing 100 to 120 μg of protein into two or three 15-mL Corex tubes in a shaking water bath at 37° C. The assay mixture in the tubes consists of 50 μL of 100 mM sodium phosphate buffer (pH 7.2), 10 μL of 4 mM pyridoxal phosphate, 40 μL of 25 mM dithiothreitol, and 1 μL of 0.1 M EDTA. The center wells in the tubes are filled with 200 μL of a 2:1 solution (v/v) of ethanolamine:2-methoxyethanol. The reaction is started by adding 50 μL of substrate (0.5 μCi of DL-[1-^14 C]-ornithine in 2 mM cold ornithine) at 1-minute intervals by injection to each of the stoppered tubes. Incubations are routinely carried out at 37° C. for 30 to 60 minutes. The reaction is stopped by addition of 0.5 ml of 2 M citric acid, and incubation is continued for an additional hour without heating to ensure complete absorption of ^14 CO2.
Radioactivity is measured using a toluene-based scintillant (4 g of PPO and 50 mg of POPOP/L of toluene) in a Beckman LS-250 liquid scintillation counter. Enzyme activity is determined in triplicate and expressed as nanomoles of CO2 released in 30 minutes per milligram of protein. Enzyme activity is linear for the protein concentration used. The protein concentrations of the epidermal extracts are determined by the Lowry procedure, using bovine serum albumin as the standard.

In the case of `CC1=C(/C=C/c2ccc3cc(C=O)ccc3c2)C(C)(C)CCC1` [Example 1, (E)-6-[2-(2,6,6-trimethyl-1-cyclohexen-1-yl)ethenyl]-2-naphthaldehyde], the results for the “Reversal of Keratinization, Active/Total Cultures” value in assay [1] (Conc 10^-8 M), in assay [1] (Conc 10^-9 M) and in assay [1] (Conc 10^-10 M) were 15/16, 7/14 and 4/14, respectively. Also, the “Reversal of Keratinization, Active/Total Cultures (%)” value (shortened to “Reversal … Active/Total Cultures (%)”) in assay [1] (Conc 10^-8 M) worked out at 94%; in assay [1] (Conc 10^-9 M) it was 50%; in assay [1] (Conc 10^-10 M), 28%. The figures for the “Inhibition of Induction of Ornithine Decarboxylase by 12-O-Tetradecanoylphorbol-13-acetate in Mouse Skin, % Inhibition of Control” value (from here on “Inhibition … % Inhibition of Control”) in assay [2] (Dose 1.7 nmol) and in assay [2] (Dose 17 nmol) were 0% and 45%, respectively.

Consider `CC1=C(/C=C/c2ccc3cc(C(=O)O)ccc3c2)C(C)(C)CCC1` [Example 3, 6-[2-(2,6,6-trimethyl-1-cyclohexen-1-yl)ethenyl]-2-naphthoicacid], for which the “Reversal of Keratinization, Active/Total Cultures” value in assay [1] (Conc 10^-8 M) was 7/7; in assay [1] (Conc 10^-9 M) it was 7/7; in assay [1] (Conc 10^-10 M), 3/7. Besides, the “Reversal … Active/Total Cultures (%)” value in assay [1] (Conc 10^-8 M) was found to be 100%; in assay [1] (Conc 10^-9 M) it was 100%; in assay [1] (Conc 10^-10 M) it was 43%. Besides, the “Inhibition … % Inhibition of Control” value in assay [2] (Dose 1.7 nmol) is 30%; in assay [2] (Dose 17 nmol), 48%.

On to `CCOC(=O)c1ccc(/C=C(C)/C=C/C2=C(C)CCCC2(C)C)o1` [Example 4, (E)-1-(5-Carbethoxy-2-furanyl)-2-methyl-4-(2,6,6-trimethyl-1-cyclohexen-1-yl)-1,3-butadiene], for which the “Reversal of Keratinization, Active/Total Cultures” value is on record as 2/7 in assay [1] (Conc 10^-8 M), 2/7 in assay [1] (Conc 10^-9 M) and 2/6 in assay [1] (Conc 10^-10 M). In addition, the “Reversal … Active/Total Cultures (%)” value was found to be 29% in assay [1] (Conc 10^-8 M), 29% in assay [1] (Conc 10^-9 M) and 33% in assay [1] (Conc 10^-10 M). Further, the “Inhibition … % Inhibition of Control” value in assay [2] (Dose 1.7 nmol) and in assay [2] (Dose 17 nmol) was 9% in each case.

For the molecule `CC1=C(/C=C/C(C)=C/c2ccc(C(=O)O)o2)C(C)(C)CCC1` [Example 5, (E)-1-(5-carboxy-2-furanyl)-2-methyl-4-(2,6,6-trimethyl-1-cyclohexen-1-yl)-1,3-butadiene], the “Reversal of Keratinization, Active/Total Cultures” value in assay [1] (Conc 10^-8 M) is 3/6; in assay [1] (Conc 10^-9 M), 3/7; in assay [1] (Conc 10^-10 M), 3/7. The “Reversal … Active/Total Cultures (%)” value is given as 50% in assay [1] (Conc 10^-8 M), 43% in assay [1] (Conc 10^-9 M) and 43% in assay [1] (Conc 10^-10 M). The “Inhibition … % Inhibition of Control” value in assay [2] (Dose 1.7 nmol) was determined as 7%; in assay [2] (Dose 17 nmol), 5%.

On to `CCOC(=O)c1ccc(/C=C(C)/C=C/C2=C(C)CCCC2(C)C)s1` [Example 6, (E)-1-(5-Carbethoxythien-2-yl)-2-methyl-4-(2,6,6-trimethyl-1-cyclohexen-1-yl)-1,3-butadiene], for which the “Reversal of Keratinization, Active/Total Cultures” value in assay [1] (Conc 10^-8 M) is given as 13/13; in assay [1] (Conc 10^-9 M), 10/14; in assay [1] (Conc 10^-10 M), 6/14. Also, the “Reversal … Active/Total Cultures (%)” value turned out to be 100% in assay [1] (Conc 10^-8 M), 71% in assay [1] (Conc 10^-9 M) and 43% in assay [1] (Conc 10^-10 M). Also, the results for the “Inhibition … % Inhibition of Control” value in assay [2] (Dose 1.7 nmol) and in assay [2] (Dose 17 nmol) were 67% and 77%, respectively.

In the case of `CC1=C(/C=C/C(C)=C/c2ccc(C(=O)O)s2)C(C)(C)CCC1` [Example 8, (E)-1-(5-carboxythien-2-yl)-2-methyl-4-(2,6,6-trimethyl-1-cyclohexen-1-yl)-1,3-butadiene], the “Reversal of Keratinization, Active/Total Cultures” value is recorded as 15/15 in assay [1] (Conc 10^-8 M), 14/15 in assay [1] (Conc 10^-9 M) and 7/15 in assay [1] (Conc 10^-10 M). Besides, the “Reversal … Active/Total Cultures (%)” value in assay [1] (Conc 10^-8 M) is listed as 100%; in assay [1] (Conc 10^-9 M), 93%; in assay [1] (Conc 10^-10 M), 47%. Moreover, the “Inhibition … % Inhibition of Control” value is 42% in assay [2] (Dose 1.7 nmol) and 67% in assay [2] (Dose 17 nmol).
